# Experiments:
# Type in all cases: in vivo, rat
# [1] = tested on: streptozotocin-induced diabetic rats; assay: Tactile allodynia, 50% withdrawal force to von Frey filaments in experimentally diabetic rats; conditions: for prevention of tactile allodynia (result in words): 3 months of treatment, diabetic rats, FIG. 2, aspirin 0.3 mg/kg, VIT E 4 g/kg diet, AMG 3 g/kg diet, PJ-34 20 mg/kg daily in drinking water; for animals in which development of tactile allodynia was prevented: SFZ 150 mg/kg BW daily in drinking water, vs non-treated diabetic group
# Description: Streptozotocin-induced diabetic rats (6-8 animals per group) were either left untreated or subjected to treatment with SFZ for up to 9 months. The presence of tactile allodynia was investigated at different time-points. […] Diabetic rats were either left untreated or subjected to treatment with either SFZ, the PARP inhibitor PJ-34, vitamin E (Vit E), or aminoguanidine (AMG) for 3 months. […] Experimentally diabetic rats display tactile allodynia (i.e., the perception of non-painful stimuli as painful), as evidenced by a significant decrease in the 50% withdrawal force (force at which there is a 50% probability of withdrawal) to von Frey filaments (FIGS. 1 and 2). The tactile allodynia was evident as early as 1 month after induction of diabetes and persisted throughout the experimental period (FIG. 1). Importantly, when compared to the non-treated diabetic group, administration of SFZ (150 mg/kg BW, daily, added to drinking water) prevented the development of tactile allodynia in either 50% or 80-100% of the animals after one or three months of treatment, respectively. We compared the effect of SFZ treatment on tactile allodynia in experimentally diabetic rats with those elicited by other salicylates (i.e. aspirin, 0.3 mg/kg), by the anti-oxidants Vitamin E (VIT E; 4 g/kg diet) and by aminoguanidine (AMG; 3 g/kg diet) and by the poly-ADP ribose-polymerase (PARP) inhibitor PJ-34 (20 mg/kg, daily, added to drinking water).
# [2] = tested on: streptozotocin-induced diabetic rats; assay: Mechanical hyperalgesia, Randall and Selitto test in streptozotocin-induced diabetic rats; conditions: results not shown
# Description: Experimentally diabetic rats display nociceptive alterations in addition to tactile allodynia.
# [3] = tested on: p65 NFkB; assay: Western blot of p65 NFkB expression in sciatic nerves of diabetic rats; conditions: 3-month SFZ-treated diabetic rats, immunoblot, FIG. 3
# Description: FIG. 3 is a Western blot analysis of p65 NFkB and CREB expression in sciatic nerves from individual normal (N), 3-month diabetic (D) and 3-month SFZ-treated diabetic (S) rats. Nerve proteins were subjected to SDS-PAGE and immunoblotting with antisera against p65 NFkB (left panel) or total (CREB) and phosphorylated CREB (p-CREB) (right panel). The ratio between the levels of pCREB and total CREB, in arbitrary units, is shown at the bottom of the respective lanes (numbers underneath the lanes). Blots were also probed using anti-ERK2 to control for protein loading. We carried out preliminary studies to determine the ability of commercial antibodies to detect the p65 subunit of NFkB, phospho-CREB (p-CREB) and CREB in sciatic nerve extracts (FIG. 3), as well as the possible changes in the expression of these transcription factors during experimental diabetes. The signal detected in the immunoblots is likely to reflect the presence of these transcription factors in Schwann cells, fibroblasts and/or endothelial cells. […] We are currently performing electrophoretic mobility shift assays (EMSA) to determine whether the increased immunoreactivity of p65 NFkB in diabetic nerves is paralleled by an increase in NFkB activity. At the same time, we observed a modest decrease in the levels of p-CREB relative to total CREB in diabetic nerves (FIG. 3, right panel). […]
# [4] = tested on: NO; assay: NO levels (nitrate+nitrite, fluorometric assay kit) in sciatic nerve extracts of diabetic rats; conditions: sciatic nerves; SFZ 200 mg/Kg BW daily for 9 months; mean ± SD of 3 animals
# Procedure: (§1) NO levels were assayed in extracts from sciatic nerves (epineurium-free) by measuring the stable metabolites of NO (nitrate+nitrite) using a fluorometric assay kit. At the same time, the levels of PGE2 were evaluated by ELISA using a commercial kit (Cayman Chemical). In parallel samples, we also performed an immunoblot analysis to investigate possible changes in the expression of COX-2, one of the enzymes that convert arachidonic acid into PGE2.
# [5] = tested on: PGE2; assay: PGE2 levels by ELISA in sciatic nerve extracts of diabetic rats; conditions: sciatic nerves; SFZ 200 mg/Kg BW daily for 9 months; mean ± SD of 3 animals
# Procedure: as §1
# [6] = tested on: COX-2; assay: Immunoblot of COX-2 expression in sciatic nerve extracts of diabetic rats; conditions: normal vs diabetic vs SFZ-treated diabetic animals, FIG. 5
# Procedure: as §1
# [7] = tested on: adenosine derivatives; assay: Reverse-phase HPLC of adenosine derivatives (inosine, AMP) in sciatic nerve extracts of diabetic rats; conditions: total sciatic nerves; SFZ 200 mg/Kg BW daily for 9 months; mean ± SEM of 4 animals
# Description: Administration of either adenosine or of adenosine kinase or adenosine deaminase inhibitors appears to increase nociception thresholds. Two studies have reported that acute administration of either adenosine or adenosine kinase inhibitors can prevent some nerve abnormalities in experimental diabetes. […] However, no studies have investigated the eventual changes in levels of adenosine (or its metabolites) in diabetic nerves. […] Given these precedents, and to determine whether the beneficial effects of SFZ might be mediated through changes in adenosine levels, we measured the levels of this nucleoside in sciatic nerve extracts. Separation of adenosine derivatives was performed by reverse-phase HPLC in […]. This method allows proper separation of ATP, ADP, AMP, adenosine and inosine standards (FIG. 6). Under our experimental conditions we didn't detect an adenosine peak in the sciatic nerve extracts, but we typically observed small peaks corresponding to ATP and ADP and two relatively large peaks corresponding to AMP and inosine (a metabolite obtained by deamination of adenosine) (FIG. 7). The lack of an adenosine peak following fractionation of the sciatic nerve extracts is consistent with metabolism to AMP and/or with the presence of significant adenosine deaminase activity in these samples (and complete degradation to inosine and other breakdown products). […] The analysis of the elution profiles corresponding to sciatic nerve extracts prepared from normal, diabetic and SFZ-treated diabetic rats is summarized in Table 3. We observed that the SFZ-treated diabetic rats display an increase of inosine and a decrease in AMP levels. The design of these experiments could be improved to include the derivatization of samples (and increase the resolution of the ATP and ADP peaks) and/or dual analysis of samples to improve separation of overlapping components.
compound,measurement,setting,value
CC(=O)Oc1ccccc1C(=O)O [aspirin],prevention of tactile allodynia (result in words),[1],partial prevention of tactile allodynia
Vitamin E [VIT E],prevention of tactile allodynia (result in words),[1],partial prevention of tactile allodynia
"N=C(N)NN [AMG, aminoguanidine]",prevention of tactile allodynia (result in words),[1],partial prevention of tactile allodynia
CN(C)CC(=O)Nc1ccc2[nH]c(=O)c3ccccc3c2c1 [PJ-34],prevention of tactile allodynia (result in words),[1],partial prevention of tactile allodynia
"O=C(O)c1cc(/N=N/c2ccc(S(=O)(=O)Nc3ccccn3)cc2)ccc1O [SFZ, 5([p(2-pyridylsulfamoyl)phenyl]azo)salicylic acid]",prevention of tactile allodynia (result in words),[1],completely prevents the development of tactile allodynia
same,animals in which development of tactile allodynia was prevented,[1]; after one month of treatment,50%
same,animals in which development of tactile allodynia was prevented,[1]; after three months of treatment,80-100%
same,prevention of tactile allodynia over time (result in words),"[1]; treatment for up to 9 months, different time-points, FIG. 1",prevents the development of tactile allodynia
same,effect on mechanical withdrawal thresholds (mechanical hyperalgesia),[2],modest amelioration of the mechanical thresholds that was not statistically significant
same,diabetes-induced increase in expression of p65 NFkB in sciatic nerves,[3],can be prevented by SFZ treatment
same,NO,[4],3.08 ± 0.25 nmoles/mg protein
same,PGE2,[5],366 ± 220 pmoles/mg protein
same,expression of COX-2 in sciatic nerve,[6],did not observe any significant changes
same,AMP,[7],2.04 ± 0.37 nmoles/mg protein
same,Inosine,[7],5.25 ± 0.64 nmoles/mg protein
same,Inosine/AMP,[7],2.71 ± 1.34

# Reference: patent US20070244077A1, “COMPOSITION AND METHOD OF TREATING PERIPHERAL NEUROPATHY” (priority 2006, published 2007)
